For series [1], the system named is unresectable or metastatic melanoma that is BRAF^v600E mutation-positive. The following applies: cited from earlier work.
In series [2] the test system is BRAF^v600 mutation-positive advance melanoma. The following applies: cited from earlier work.
Series [3] can be described thus: 24-hour solubility of active drug in buffers across the physiological pH range. Type of series: physicochemical. The following applies: 37° C. As for the experimental part: Cobimetinib is considered to be a high-solubility, moderate-to-high permeability compound with in vivo absorption/pharmacokinetic characteristics consistent with Biopharmaceutics Classification System (BCS) Class 1. […] An active drug is considered highly soluble when the highest dose strength is soluble in <250 mL water over a pH range of 1 to 7.5.

What is called Solubility is the concentration that dissolves in the medium under given conditions. Lower therefore signals little dissolved substance.

`CCCS(=O)(=O)Nc1ccc(F)c(C(=O)c2c[nH]c3ncc(-c4ccc(Cl)cc4)cc23)c1F` [vemurafenib, propane-1-sulfonic acid {3-[5-(4-chlorophenyl)-1H-pyrrolo[2,3-b]pyridine-3-carbonyl]-2,4-difluoro-phenyl}-amide]: in series [1] (compared with dacarbazine), the “decrease in the risk of disease progression or death” value is given as 74% and the “reduction in the risk of death” value is listed as 63%. Besides, in series [1] (human, in vivo), the response rates entry is given as “greater than 50%”. Moreover, the median progression-free survival in series [2] is 6.2 months.
With “(S)-[3,4-Difluoro-2-(2-fluoro-4-iodoanilino)phenyl]{3-hydroxy-3-[(2S)-piperidin-2-yl]azetidin-1-yl} methanone [cobimetinib hemifumarate]”, the Solubility in series [3] (50 mM Acetate pH 4.5 (pH measured 4.5)) was found to be 1080 µg/mL; in series [3] (50 mM Phosphate pH 6.8 (pH measured 6.8)) it was 780 µg/mL; in series [3] (50 mM Phosphate pH 7.5 (pH measured 7.5)) it was 730 µg/mL; in series [3] (0.1M HCl pH 1.1 (pH measured 1.9)), 48210 µg/mL; in series [3] (FaSSIF pH 6.5 (pH measured 6.4)), 480 µg/mL; in series [3] (FeSSIF pH 5.0 (pH measured 5.0)), 4130 µg/mL. Further, the Solubility in series [3] (Water, pH Neutral (pH measured 7.5)) amounted to 720 µg/mL.

Values taken from patent publication US20200085749A1, “IMMEDIATE-RELEASE TABLETS CONTAINING A DRUG AND PROCESSES FOR FORMING THE TABLETS” (Genentech, Inc., priority 2015, published 2020).
